Our source for the IC50 and DC50 values is patent US11352350B2, “IRAK degraders and uses thereof” (Kymera Therapeutics, Inc., priority 2018, dated 2022).

Like-named read-outs stand apart in the source and are kept apart here.

For one assay, the system named is OCI-LY10. The assay can be described thus: CTG Cell Viability Assay - OCI-LY10. The assay is classed as cell-based, human. The following applies: Homo sapiens, OCI-Ly10, 96 h, OCI-LY10, 4 days; read-out: CTG Cell Viability Assay - OCI-LY10: Average external-IC50. A digest of the protocol:
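Viability read by CellTiter-Glo luminescence after 4 days at 37° C under 5% CO2 with compound (top 10 μM final, 1:3 steps, 9 doses, DMSO 0.2%). Three-parameter logistic fit gave IC50.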

The target in another assay is IRAK4 (Homo sapiens (Human), UniProt Q9NWZ3). Put plainly: IRAK4 MSD degradation in OCI-LY10. The assay is classed as cell-based. The following applies: MSD. In short, it runs like this:
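Remaining IRAK4 quantified by electrochemiluminescent MSD sandwich assay with two anti-IRAK4 antibodies. Compounds were dosed as 8 concentrations in 1:3 steps from a 1 to 10 μM final top on OCI-LY10 cells, incubated 4 to 24 h at 37° C. under 5% CO2. DC50 fitted with a three-parameter logistic curve.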

[1] abbreviates: OCI-LY10, 4 hrs, read-out: IRAK4 MSD degradation in OCI-LY10 at 4 hrs: Average external-Abs DC50.
[2] abbreviates: OCI-LY10, 24 hrs, read-out: IRAK4 MSD degradation in OCI-LY10 at 24 hrs: Average external-Abs DC50.

Sequence of IRAK4 (Q9NWZ3 whole entry): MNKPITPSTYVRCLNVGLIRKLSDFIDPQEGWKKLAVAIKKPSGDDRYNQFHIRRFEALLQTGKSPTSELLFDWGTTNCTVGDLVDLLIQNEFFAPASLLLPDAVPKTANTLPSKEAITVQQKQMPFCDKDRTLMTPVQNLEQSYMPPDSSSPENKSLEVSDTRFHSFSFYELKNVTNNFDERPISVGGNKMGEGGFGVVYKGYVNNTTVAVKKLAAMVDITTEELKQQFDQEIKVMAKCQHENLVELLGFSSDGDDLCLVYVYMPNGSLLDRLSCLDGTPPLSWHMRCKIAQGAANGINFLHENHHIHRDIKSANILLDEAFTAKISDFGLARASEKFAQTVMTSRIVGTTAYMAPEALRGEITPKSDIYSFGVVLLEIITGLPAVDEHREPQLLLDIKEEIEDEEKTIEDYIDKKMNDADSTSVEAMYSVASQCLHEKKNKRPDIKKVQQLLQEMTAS

With `CN1C(=O)CCC(n2c(=O)n(C)c3c(CN4CCC(N(C)C[C@H]5CC[C@H](n6cc(NC(=O)c7coc(-c8ccnc(NCC9CC9)c8)n7)c(C(F)F)n6)CC5)CC4)cccc32)C1=O` (stereo partly shown) [I-247], the IC50 (as a rule, the concentration that inhibits the measured activity by half) with OCI-LY10 is more than 1000 nM. The DC50 (as a rule, the concentration giving 50% degradation) on IRAK4 (setting [1]) lay in the range of 100 to 1000 nM.

Take `CN(CCCOCCCNc1cccc2c1C(=O)N(C1CCC(=O)NC1=O)C2=O)C[C@H]1CC[C@H](n2cc(NC(=O)c3coc(-c4ccnc(N[C@H]5CCCC[C@H]5O)c4)n3)c(C(F)F)n2)CC1` (stereo partly shown) [I-398]: the IC50 in the assay with OCI-LY10 was 50 to 100 nM. Further, the half-maximal degradation concentration (DC50) on IRAK4 (setting [1]) and on IRAK4 (setting [2]) was 10 to 100 nM in each case.

Turning to `Cc1nc2cccc(N(C)CCCOC3CCN(C[C@H]4CC[C@H](n5cc(NC(=O)c6cnn7ccc(N8CCOCC8)nc67)c(C(F)F)n5)CC4)CC3)c2c(=O)n1C1CCC(=O)NC1=O` (stereo partly shown) [I-214], the IC50 with OCI-LY10 was more than 1000 nM. The DC50 at IRAK4 (setting [1]) and on IRAK4 (setting [2]) was more than 1000 nM in each case.

As to `CN(C[C@H]1CC[C@H](n2cc(NC(=O)c3coc(-c4ccnc(NCC5CC5)c4)n3)c(C(F)F)n2)CC1)C1CN(Cc2cccc3c2n(C)c(=O)n3C2CCC(=O)NC2=O)C1` (stereo partly shown) [I-240], the IC50 with OCI-LY10 was more than 1000 nM. Also, the DC50 on IRAK4 (setting [1]) was less than 10 nM.

For the molecule `CN(CCCOCCc1ccc2c(c1)n(C)c(=O)n2C1CCC(=O)NC1=O)C[C@H]1CC[C@H](n2cc(NC(=O)c3coc(-c4ccnc(NCC5CC5)c4)n3)c(C(F)F)n2)CC1` (stereo partly shown) [I-129], the IC50 in the assay with OCI-LY10 was more than 1000 nM. Also, on IRAK4 (setting [1]), the DC50 is less than 10 nM.

As for `O=C1CCC(N2C(=O)c3cccc(NCCCOC4CCN(C[C@H]5CC[C@H](n6cc(NC(=O)c7cnn8ccc(N9CC%10CC(C9)O%10)nc78)c(C(F)F)n6)CC5)CC4)c3C2=O)C(=O)N1` (stereo partly shown) [I-344], the IC50 in the assay on OCI-LY10 was less than 50 nM. Besides, the DC50 at IRAK4 (setting [1]) was 100 to 1000 nM.

For `Cn1c(=O)n(C2CCC(=O)NC2=O)c2cccc(CCCOCC3CCN(C[C@H]4CC[C@H](n5cc(NC(=O)c6cnn7ccc(N8CCOCC8)nc67)c(C(F)F)n5)CC4)CC3)c21` (stereo partly shown) [I-198], the IC50 with OCI-LY10 was more than 1000 nM. In addition, at IRAK4 (setting [1]), the DC50 is less than 10 nM.

In the case of `O=C1CCC(N2C(=O)c3cccc(NCC4CCN(C[C@H]5CC[C@H](n6cc(NC(=O)c7cnn8ccc(N9CCOCC9)nc78)c(C(F)F)n6)CC5)CC4)c3C2=O)C(=O)N1` (stereo partly shown) [I-385], the IC50 with OCI-LY10 was less than 50 nM. Also, the DC50 was more than 1000 nM at IRAK4 (setting [1]) and 10 to 100 nM at IRAK4 (setting [2]).

As for `CN(C[C@H]1CC[C@H](n2cc(NC(=O)c3cnn4ccc(N5CCOCC5)nc34)c(C(F)F)n2)CC1)[C@H]1CC[C@H](Nc2cccc3c2C(=O)N(C2CCC(=O)NC2=O)C3=O)CC1` (stereo partly shown) [I-355], the IC50 with OCI-LY10 is 100 to 500 nM. The DC50 on IRAK4 (setting [1]) is 10 to 100 nM; at IRAK4 (setting [2]), less than 10 nM.

In the case of `CN(C(=O)c1coc(-c2ccnc(NCC3CC3)c2)n1)c1cn([C@H]2CC[C@H](CN(C)C3CCN(Cc4cccc5c4n(C)c(=O)n5C4CCC(=O)NC4=O)CC3)CC2)nc1C(F)F` (stereo partly shown) [I-395], in the assay with OCI-LY10, the 50% inhibitory concentration (IC50) is more than 1000 nM. For the same molecule, on IRAK4 (setting [1]), the DC50 lay within 100 to 1000 nM.

`Cn1c(=O)n(C2CCC(=O)NC2=O)c2cccc(CCCOC3CCN(C[C@H]4CC[C@H](n5cc(NC(=O)c6cnn7ccc(N8C[C@H](N)CC(F)(F)C8)nc67)c(C(F)F)n5)CC4)CC3)c21` (stereo partly drawn) [I-303, 5-[(5R)-5-amino-3,3-difluoro-1-piperidyl]-N-[3-(difluoromethyl)-1-[4-[[4-[3-[1-(2,6-dioxo-3-piperidyl)-3-methyl-2-oxo-benzimidazol-4-yl]propoxy]-1-piperidyl]methyl]cyclohexyl]pyrazol-4-yl] pyrazolo [1,5-a] pyrimidine-3-carboxamide]: the 50% inhibitory concentration (IC50) in the assay with OCI-LY10 was more than 1000 nM. Moreover, the DC50 on IRAK4 (setting [1]) is 10 to 100 nM.

As for `O=C1CCC(N2C(=O)c3cccc(NCCCOCCCN4CCC(n5cc(NC(=O)c6cnn7ccc(N8CCOCC8)nc67)c(C(F)F)n5)CC4)c3C2=O)C(=O)N1` (stereo not shown) [I-226], the IC50 in the assay on OCI-LY10 is less than 50 nM. For the same molecule, the DC50 was 100 to 1000 nM on IRAK4 (setting [1]) and 10 to 100 nM at IRAK4 (setting [2]).

As for `CN(C[C@H]1CC[C@H](n2cc(NC(=O)c3cnn4ccc(N[C@@H]5CCCC[C@@H]5O)nc34)c(C(F)F)n2)CC1)C1CCN(Cc2cccc3c2n(C)c(=O)n3C2CCC(=O)NC2=O)CC1` (stereo partly shown) [I-279], in the assay with OCI-LY10, the IC50 is more than 1000 nM. For the same molecule, the DC50 on IRAK4 (setting [1]) was less than 10 nM.

`O=C1CCC(N2C(=O)c3cccc(NCCCOC4CCN(Cc5ccc(-n6cc(NC(=O)c7cnn8ccc(N9CCOCC9)nc78)c(C(F)F)n6)cc5)CC4)c3C2=O)C(=O)N1` (stereo not shown) [I-403]: in the assay with OCI-LY10, the IC50 is 50 to 100 nM. Also, the DC50 was more than 1000 nM on IRAK4 (setting [1]) and 10 to 100 nM on IRAK4 (setting [2]).
